How the values were obtained:
BsIMPDH [1] = biological target: T1, BsIMPDH (Bacillus subtilis, UniProt P21879); details: for binding to BsIMPDH (in words): ITC, 25 °C, 25 μM BsIMPDH
BsIMPDH [2] = biological target: T1, BsIMPDH; assay: Mass photometry of BsIMPDH tetramer/octamer state; details: EC50 of BsIMPDH octamer formation, absence of substrates, 100 nM BsIMPDH
BsIMPDH-ΔCBS [3] = details: 10 μM Ap4A
BsIMPDH [4] = biological target: T1, BsIMPDH; assay: biochemical
E. coli IMPDH = details: cited from earlier work
BsIMPDH-ΔCBS [5] = details: presence of IMP and NAD+
BsIMPDH [6] = biological target: T1, BsIMPDH; details: 50 μM BsIMPDH, 5 mM ligand, 25 °C
A. gossypii IMPDH = details: cited from earlier work
BsIMPDH [7] = biological target: T1, BsIMPDH; assay: biochemical; remark: listed apart in the source
[8] = dinucleotide 10 μM, NAD+ constant, IMP variable

T1 sequence (P21879 whole entry): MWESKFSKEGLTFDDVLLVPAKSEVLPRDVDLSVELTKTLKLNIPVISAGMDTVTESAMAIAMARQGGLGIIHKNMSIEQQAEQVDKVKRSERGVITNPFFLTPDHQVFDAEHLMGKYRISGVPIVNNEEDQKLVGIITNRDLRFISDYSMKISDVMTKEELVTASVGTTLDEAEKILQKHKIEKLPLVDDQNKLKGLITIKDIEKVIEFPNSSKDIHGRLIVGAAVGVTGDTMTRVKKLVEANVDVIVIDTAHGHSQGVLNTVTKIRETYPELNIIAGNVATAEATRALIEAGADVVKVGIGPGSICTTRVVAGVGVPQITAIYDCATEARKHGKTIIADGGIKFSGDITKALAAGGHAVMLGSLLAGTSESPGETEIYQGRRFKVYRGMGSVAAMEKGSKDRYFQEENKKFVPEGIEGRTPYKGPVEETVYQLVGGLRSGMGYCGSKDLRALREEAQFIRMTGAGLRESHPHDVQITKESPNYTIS

Structure (SMILES): Nc1nc2c(ncn2[C@@H]2O[C@H](COP(=O)(O)OP(=O)(O)OP(=O)(O)OC[C@H]3O[C@@H](n4cnc5c(N)ncnc54)[C@H](O)[C@@H]3O)[C@@H](O)[C@H]2O)c(=O)[nH]1 [Ap3G]
- binding to BsIMPDH (in words) (BsIMPDH [1]): No binding

Structure (SMILES): Nc1ncnc2c1ncn2[C@@H]1O[C@H](COP(=O)(O)OP(=O)(O)OP(=O)(O)OP(=O)(O)OC[C@H]2O[C@@H](n3cnc4c(N)ncnc43)[C@H](O)[C@@H]2O)[C@@H](O)[C@H]1O [Ap4A, diadenosine 5’,5’’’-P1,P4-tetraphosphate]
- EC50 (BsIMPDH [2]): 90 µM
- Ap4A-dependent regulation of enzymatic activity (in words) (BsIMPDH-ΔCBS [3]): insensitive to Ap4A-dependent regulation
- difference in affinity between Ap4A and ATP (BsIMPDH [1]; from ITC Kd values): approximately 700 fold
- Kd (BsIMPDH [4]): 7.4 ± 2.1 µM
- affinity relative to ATP (E. coli IMPDH): five-fold higher affinity than ATP
- Ap4A-dependent tetramer-to-octamer equilibrium (in words) (BsIMPDH-ΔCBS [5]): insensitive to Ap4A-dependent regulation
- effect on conformational flexibility of CBS domains (HDX-MS, in words) (BsIMPDH [6]): restrict the conformational flexibility of the CBS domains
- binding (in words) (A. gossypii IMPDH): only with low affinity
- Ki (BsIMPDH [7]): 15.8 µM
- effect on BsIMPDH activity (in words) (BsIMPDH [7]; Ap4A 1-100 μM): potently reduced BsIMPDH activity

Structure (SMILES): Nc1nc2c(ncn2[C@@H]2O[C@H](COP(=O)(O)OP(=O)(O)OP(=O)(O)OP(=O)(O)OC[C@H]3O[C@@H](n4cnc5c(N)ncnc54)[C@@H](O)C3O)[C@H](O)C2O)c(=O)[nH]1 (some centres unmarked) [Ap4G]
- binding to BsIMPDH (in words) (BsIMPDH [1]): No binding

Structure (SMILES): Nc1ncnc2c1ncn2[C@@H]1O[C@H](COP(=O)(O)OP(=O)(O)OP(=O)(O)OP(=O)(O)OP(=O)(O)OC[C@H]2O[C@@H](n3cnc4c(N)ncnc43)[C@H](O)[C@@H]2O)[C@@H](O)[C@H]1O [Ap5A]
- effect on BsIMPDH activity (in words) (BsIMPDH [7]; [8]): resulted in BsIMPDH inhibition

Structure (SMILES): Nc1nc2c(ncn2[C@@H]2O[C@H](COP(=O)(O)OP(=O)(O)OP(=O)(O)OP(=O)(O)OP(=O)(O)OC[C@H]3O[C@@H](n4cnc5c(N)ncnc54)[C@H](O)[C@@H]3O)[C@@H](O)[C@H]2O)c(=O)[nH]1 [Ap5G]
- binding to BsIMPDH (in words) (BsIMPDH [1]): No binding
- binding (in words) (A. gossypii IMPDH): well

Structure (SMILES): Nc1ncnc2c1ncn2[C@@H]1O[C@H](COP(=O)(O)OP(=O)(O)OP(=O)(O)OP(=O)(O)OP(=O)(O)OP(=O)(O)OC[C@H]2O[C@@H](n3cnc4c(N)ncnc43)[C@H](O)[C@@H]2O)[C@@H](O)[C@H]1O [Ap6A]
- effect on BsIMPDH activity (in words) (BsIMPDH [7]; [8]): resulted in BsIMPDH inhibition

Structure (SMILES): Nc1nc2c(ncn2[C@@H]2O[C@H](COP(=O)(O)OP(=O)(O)O)[C@@H](O)[C@H]2O)c(=O)[nH]1 [GDP, guanosine-5’-mono-, di-, triphosphate]
- binding (in words) (A. gossypii IMPDH): well

From paper PMC10439310 (Nature microbiology, 2022)
